Results taken from ChEMBL document CHEMBL3627675, “Protective effects of the bioactive natural product N-trans-Caffeoyldopamine on hepatotoxicity induced by isoniazid and rifampicin” (2015).
The source made the active and inactive calls. The calls are words filed in the database; no cut-off is given here.

Key:
Rattus norvegicus [1] = assay: Protective activity against isoniazid and rifampicin-induced hepatotoxicity in Wistar rat assessed as reduction of serum AST level at 2.5 mg/kg, po (reference value: 168.5 +/- 14.7 U); assay type: functional
Rattus norvegicus [2] = assay: Protective activity against isoniazid and rifampicin-induced hepatotoxicity in Wistar rat assessed as increase of SOD activity at 2.5 mg/kg, po (reference value: 31.4 +/- 8.3 U/mg); assay type: functional
Rattus norvegicus [3] = species: Rattus norvegicus; assay: Protective activity against isoniazid and rifampicin-induced hepatotoxicity in Wistar rat assessed as decrease of CYP2E1 mRNA expression in liver; assay type: functional, organism-based
Rattus norvegicus [4] = species: Rattus norvegicus; assay: Protective activity against isoniazid and rifampicin-induced hepatotoxicity in Wistar rat by haematoxylin and eosin staining; assay type: functional, organism-based
Rattus norvegicus [5] = assay: Protective activity against isoniazid and rifampicin-induced hepatotoxicity in Wistar rat assessed as increase of GSH activity at 2.5 mg/kg, po (reference value: 29.4 +/- 11.4 uM/gram); assay type: functional
Rattus norvegicus [6] = assay: Protective activity against isoniazid and rifampicin-induced hepatotoxicity in Wistar rat assessed as reduction of MDA level at 2.5 mg/kg, po (reference value: 30.5 +/- 7.8 nM/mg); assay type: functional
Rattus norvegicus [7] = assay: Protective activity against isoniazid and rifampicin-induced hepatotoxicity in Wistar rat assessed as reduction of serum ALT level at 2.5 mg/kg, po (reference value: 143.7 +/- 12.5 U); assay type: functional

Q: Which results are given for `O=C(O)/C=C/c1ccc(O)c(O)c1` [CAFFEIC ACID]?
A: Activity (Rattus norvegicus [1]): 115.6 U; Activity (Rattus norvegicus [2]): 48 U/mg; Activity (Rattus norvegicus [3]): Active; Activity (Rattus norvegicus [4]): Active; Activity (Rattus norvegicus [5]): 42.9 µmol/g; Activity (Rattus norvegicus [6]): 23.5 nM/mg; Activity (Rattus norvegicus [7]): 102.9 U

Q: Which results are given for `O=C(/C=C/c1ccc(O)c(O)c1)NCCc1ccc(O)c(O)c1`?
A: Activity (Rattus norvegicus [1]): 86.4 U; Activity (Rattus norvegicus [2]): 57 U/mg; Activity (Rattus norvegicus [3]): Active; Activity (Rattus norvegicus [4]): Active; Activity (Rattus norvegicus [5]): 49 µmol/g; Activity (Rattus norvegicus [6]): 14.8 nM/mg; Activity (Rattus norvegicus [7]): 80.6 U
